One series relates to Aphis craccivora. Description: B-6 contact action on Aphis craccivora (sprayed pea seedlings). In kind it is in vivo. The conditions noted are these: 12,5 ppm, after 3 days; for mortality at 12.5 ppm: Aphis craccivora, 72 h, read-out: Abtötung. From the text: Erbsenkeimlinge, die mit sämtlichen Entwicklungsstadien der Laus infiziert sind, werden mit einer aus einem Emulsionskonzentrat hergestellten Wirkstofflösung besprüht, die wahlweise 50 ppm, 25 ppm oder 12,5 ppm Wirkstoff enthält. Nach 3 Tagen wird auf mehr als 80 % tote bzw. abgefallene Blattläuse ausgewertet. Nur bei dieser Wirkungshöhe wird ein Präparat als wirksam eingestuft.

For another series, the system named is Dermanyssus gallinae. Briefly: B-9 miticidal action against Dermanyssus gallinae. In kind it is in vivo. Particulars: for Wirkung (Mortalität): 4320 min; for mortality at 100 ppm: Dermanyssus gallinae, 72 h, read-out: Wirkung (Mortalität). The method, then:
2 bis 3 ml einer Testlösung (100, 10, 1 und 0,1 ppm Aktivsubstanz) werden in einen nach oben offenen Glasbehälter gegeben und ca. 200 Milben in unterschiedlichen Entwicklungsstadien in diesen Behälter eingesetzt. Der Glasbehälter wird mit einem Wattebausch verschlossen und 10 Minuten gleichmässig, bis zur vollständigen Benetzung der Milben geschüttelt. Danach wird der Behälter umgekehrt hingestellt, bis die überschüssige Testlösung von der Watte aufgesogen ist. Der Behälter wird erneut gekehrt und die behandelten […] zur Evaluierung der Wirksamkeit der Testsubstanzen drei Tage unter Laborbedingungen beobachtet, wobei die Mortalität als Massstab für Wirksamkeit herangezogen wird.

A further series has as its system Spodoptera littoralis. Description: B-1 insecticidal stomach-poison action on Spodoptera littoralis (sprayed cotton plants). In kind it is in vivo. Particulars: Wirkstoffkonzentration 3 ppm; nach 24 Stunden; L1 larvae on sprayed cotton plants. The method, then: Eingetopfte Baumwollpflanzen im 5-Blatt-Stadium werden mit einer acetonisch/wässrigen Versuchslösung besprüht, die 3, 12,5 oder 50 ppm der zu prüfenden Verbindung enthält.
Nach dem Antrocknen des Belags werden die Pflanzen mit ca. 30 Larven (L₁-Stadium) von Spodoptera littoralis besetzt. Pro Versuchsverbindung und pro Test-Spezies verwendet man zwei Pflanzen. Der Versuch wird bei ca. 24°C und 60 % relativer Luftfeuchtigkeit durchgeführt. Auswertungen und Zwischenauswertungen auf moribunde Tiere, Wachstum und Larven und Frassschäden erfolgen nach 24 Stunden, 48 Stunden und 72 Stunden.

The subject of series [1] is L₁-Larven von Lucilia sericata. Description: B-3 action against L1 larvae of Lucilia sericata (larval culture medium). In kind it is in vivo. The conditions noted are these: after 4 days; for Wirkung (Mortalitätsrate): 100 ppm; for mortality at 100 ppm: Lucilia sericata, 96 h, read-out: Wirkung (Mortalitätsrate). The method, then:
1 ml einer wässrigen Suspension der zu prüfenden Aktivsubstanz werden so mit 3 ml eines speziellen Larvenzuchtmediums bei ca. 50°C vermischt, dass ein Homogenisat von wahlweise 250 ppm oder 100 ppm Wirkstoffgehalt entsteht. In jede Reagenzglas-Probe werden ca. 30 Lucilia-Larven (L₁) eingesetzt. Nach 4 Tagen wird die Mortalitätsrate bestimmt. Verbindungen der Formel I aus den Tabellen, wie z.B. die Verbindungen Nr. 2.8, 2.17, 2.31, 2.33, 2.35, 2.43, 2.1, 2.18 und 2.45 erzielten mit 100 ppm eine Wirkung von 100 %.

The subject of series [2] is Haemonchus concortus und Trichostrongylus colubriformis. Description: B-5 test on sheep infected with nematodes (worm egg count in faeces). The class given is in vivo, Schafe. Particulars: 0,2 mg/kg, single dose by stomach tube or intraruminal injection; compared with untreated infected sheep. The method, then:
Der Wirkstoff wird als Suspension formuliert mit einer Magensonde oder durch Injektion in den Pansen eines Schafes gegeben, das mit Haemonchus concortus und Trychostrongylus colubriformis künstlich infiziert worden ist. Pro Dosis werden 1 bis 3 Tiere verwendet. Jedes Schaf wird nur einmal mit einer einzigen Dosis behandelt, und zwar wahlweise mit 0,5 mg oder 0,2 mg/kg Körpergewicht. Die Evaluierung erfolgt durch Vergleich der Anzahl der vor und nach Behandlung im Kot der Schafe ausgeschiedenen Wurmeier.
Gleichzeitig und gleichartig infizierte aber unbehandelte Schafe dienen als Kontrolle.

The test system of a further series is Aedes aegypti. Briefly: B-7 larvicidal action against Aedes aegypti. In kind it is in vivo. Particulars: 1,6 ppm; nach einem Tag. The method, then:
Auf die Oberfläche von 150 ml Wasser, das sich in einem Behälter befindet, wird soviel einer 0,1 %igen acetonischen Lösung des Wirkstoffes pipettiert, dass Konzentrationen von wahlweise 10 ppm, 3,3 ppm und 1,6 ppm erhalten werden. Nach Verdunsten des Acetons wird der Behälter mit ca. 30-40 3 Tage alten Aedes-Larven beschickt. Nach 1, 2 und 5 Tagen wird die Mortalität geprüft.

Series [3] deals with Boophilus microplus (Biarra-Stamm). Description: B-4 acaricidal action against Boophilus microplus (injection into engorged female ticks, IR90). The class given is in vivo. Particulars: injection of 1, 0,1 or 0,01 µg per tick; dose of the result not stated. How it is done:
Auf einer PVC-Platte wird waagrecht ein Klebstreifen so befestigt, das darauf 10 mit Blut vollgesogene Zecken-Weibchen von Boophilus microplus (Biarra-Stamm) nebeneinander in einer Reihe mit dem Rücken aufgeklebt werden können. Jeder Zecke wird mit einer Injektionsnadel 1 µl einer Flüssigkeit injiziert, die eine 1:1-Mischung von Polyethylenglykol und Aceton darstellt und in der eine bestimmte Wirkstoffmenge von wahlweise 1, 0,1 oder 0,01 µg pro Zecke gelöst ist. Kontrolltiere erhalten eine wirkstofffreie Injektion. Nach der Behandlung werden die Tiere unter Normalbedingungen in einem Insektarium bei ca. 28°C und 80 % relativer Luftfeuchtigkeit gehalten, bis die Eiablage erfolgt und die Larven aus den Eiern der Kontrolltiere geschlüpft sind.
Die Aktivität einer geprüften Substanz wird mit der IR₉₀ bestimmt, d.h. es wird jene Wirkstoffdosis ermittelt, bei der noch nach 30 Tagen 9 von 10 Zeckenweibchen (= 90 %) Eier ablegen, die nicht schlupffähig sind.

Series [4] deals with OP-sensible Tetranychus urticae. Briefly: B-2 action against plant-damaging acarids, OP-sensitive Tetranychus urticae (sprayed bean plants). In kind it is in vivo. Particulars: Wirkstoffkonzentration 0,4 ppm; evaluated after seven days; all mite stages on bean plants. How it is done:
Die Primärblätter von Bohnenpflanzen (Phaseolus vulgaris) werden 16 Stunden vor dem Versuch mit einem durch T. urticae infestierten, aus einer Massenzucht stammenden Blattstück belegt. Die so mit allen Milben-Stadien infestierten Pflanzen werden nach Entfernung des Blattstücks mit einer Versuchslösung bis zur Tropfnässe besprüht, die wahlweise 0,4 ppm oder 1,6 ppm der zu prüfenden Verbindung enthält. Die Temperatur in der Gewächshauskabine beträgt ca. 25°C.
Nach sieben Tagen wird unter dem Binokular auf Prozentsatz mobiler Stadien (Adulte und Nymphen) und auf vorhandene Eier ausgewertet.

The subject of the next series is Meloidogyne incognita. Description: B-8 soil-nematicidal action against Meloidogyne incognita (tomato plants, root-knot index). In kind it is in vivo. The conditions noted are these: 0,002 % Aktivsubstanz based on soil volume; after 4 weeks; untreated infected controls = 100 %. How it is done: Eier von Meloidogyne incognita werden in Sand eingemischt. Dieses Gemisch wird dann in 200 ml fassende Tontöpfe eingebracht (5000 Eier pro Topf). Am gleichen Tag wird pro Topf eine 3 Wochen alte Tomatenpflanze gepflanzt und der formulierte Wirkstoff mittels Druckapplikation in die Töpfe hineingegeben (0,002 % Aktivsubstanz bezogen auf das Bodenvolumen). Die eingetopften Pflanzen werden nun bei einer Temperatur von 26±1°C und einer relativen Luftfeuchtigkeit von 60 % in einem Gewächshaus aufgestellt. Nach Ablauf von 4 Wochen erfolgt eine Evaluierung durch Untersuchung der Pflanzen auf Wurzelgallbildung nach dem sogenannten Wurzelgall-Index ("Knot Index")

[5] abbreviates: 100 ppm, observed for three days.

Where two headings read alike, the source gives them in different places.

Consider “5-O-(1,2,4-Trizaol-1-yl)acetyl-13β-methyl-milbemycin A₄-Zink(II)-Komplex [Verbindung 2.35]”, for which the Abtötung is listed as 100% in the series with Aphis craccivora and “vollständige Abtötung” with Spodoptera littoralis. Also, the “Wirkung (Mortalität)” value with Dermanyssus gallinae (setting [5]) came out at 100%. For the same molecule, in [1], the “Wirkung (Mortalitätsrate)” value was 100%. For the same molecule, the “Nematodenbefall (Reduktion der Wurmeier im Kot)” value (“Nematodenbefall” for short) in series [2] is listed as “keinen Nematodenbefall”.

As for “5-O-(3,4-Dihydro-2H-pyran-2-yl)carboxyacetyl-13β-methyl-milbemycin A₄ [Verbindung 2.31]”, the “Wirkung (Mortalität)” value in the series with Dermanyssus gallinae (setting [5]) came out at 100%. For the same molecule, the “Abtötung sämtlicher Larven” value with Aedes aegypti is listed as “vollständige Abtötung”. Further, the “Wirkung (Mortalitätsrate)” value in series [1] was 100%. In addition, the “Nematodenbefall” value in series [2] was “keinen Nematodenbefall”.

As for `CC[C@H]1O[C@]2(CC[C@@H]1C)C[C@@H]1C[C@@H](C/C=C(\C)[C@H](C)[C@@H](C)/C=C/C=C3\CO[C@@H]4[C@H](OC(C)=O)C(C)=C[C@@H](C(=O)O1)[C@]34O)O2` [Verbindung 2.1, 5-O-Acetyl-13β-methyl-milbemycin A₄], the “Abtötung sämtlicher Larven” value in the series on Aedes aegypti is “vollständige Abtötung”. Further, in series [1], the mortality at 100 ppm was 100%. Also, the “Nematodenbefall” value in series [2] is recorded as “keinen Nematodenbefall”.

As for `CC[C@H]1O[C@]2(CC[C@@H]1C)C[C@@H]1C[C@@H](C/C=C(\C)[C@H](C)[C@@H](C)/C=C/C=C3\CO[C@@H]4[C@H](OC(=O)CCl)C(C)=C[C@@H](C(=O)O1)[C@]34O)O2` [Verbindung 2.8, 5-O-Chloracetyl-13β-methyl-milbemycin A₄], in [3], the “Wirkung (IR₉₀)” value was “sehr gute Wirkung”. The mortality at 12.5 ppm with Aphis craccivora was 100%. The mortality at 100 ppm (in the series on Dermanyssus gallinae (setting [5]); in series [1]) was 100% throughout. The “Abtötung sämtlicher Larven” value in the series with Aedes aegypti is “vollständige Abtötung”. Besides, the Abtötung entry (with Spodoptera littoralis; in [4]) was “vollständige Abtötung” throughout. In addition, in series [2], the “Nematodenbefall” value is recorded as “keinen Nematodenbefall”.

For `CC[C@H]1O[C@]2(CC[C@@H]1C)C[C@@H]1C[C@@H](C/C=C(\C)[C@H](C)[C@@H](C)/C=C/C=C3\CO[C@@H]4[C@H](OC(=O)COC(C)=O)C(C)=C[C@@H](C(=O)O1)[C@]34O)O2` [Verbindung 2.17, 5-O-Acetoxy-acetyl-13β-methyl-milbemycin A₄], in the series on Meloidogyne incognita, the “Restbefall (Wurzelgallbildung)” value is recorded as 0-10%. Besides, in the series with Aphis craccivora, the mortality at 12.5 ppm worked out at 100%. For the same molecule, the mortality at 100 ppm (in the series with Dermanyssus gallinae (setting [5]); in [1]) was 100% in each case. Further, the “Abtötung sämtlicher Larven” value in the series on Aedes aegypti is reported as “vollständige Abtötung”. Besides, the Abtötung entry in series [4] is on record as “vollständige Abtötung”. Besides, in [2], the “Nematodenbefall” value is “keinen Nematodenbefall”.

As to `CC[C@H]1O[C@]2(CC[C@@H]1C)C[C@@H]1C[C@@H](C/C=C(\C)[C@H](CC)[C@@H](C)/C=C/C=C3\CO[C@@H]4[C@H](OC(=O)COC(C)=O)C(C)=C[C@@H](C(=O)O1)[C@]34O)O2` [Verbindung 2.18, 5-O-Acetoxy-acetyl-13β-ethyl-milbemycin A₄], in the series with Meloidogyne incognita, the “Restbefall (Wurzelgallbildung)” value was 0-10%. For the same molecule, the “Abtötung sämtlicher Larven” value in the series on Aedes aegypti is given as “vollständige Abtötung”. Besides, the mortality at 100 ppm in series [1] amounted to 100%. Moreover, the “Nematodenbefall” value in series [2] is on record as “keinen Nematodenbefall”.

Turning to `CC[C@H]1O[C@]2(CC[C@@H]1C)C[C@@H]1C[C@@H](C/C=C(\C)[C@H](C)[C@@H](C)/C=C/C=C3\CO[C@@H]4[C@H](OC(=O)COC)C(C)=C[C@@H](C(=O)O1)[C@]34O)O2` [Verbindung 2.43, 5-O-Methoxyacetyl-13β-methyl-milbemycin A₄], the mortality at 12.5 ppm in the series with Aphis craccivora is 100%. In addition, the “Abtötung sämtlicher Larven” value in the series with Aedes aegypti is reported as “vollständige Abtötung”. The Abtötung result (in the series with Spodoptera littoralis; in series [4]) was “vollständige Abtötung” in each case. In addition, the mortality at 100 ppm in series [1] is 100%. The “Nematodenbefall” value in [2] is on record as “keinen Nematodenbefall”.

On to `CC[C@H]1O[C@]2(CC[C@@H]1C)C[C@@H]1C[C@@H](C/C=C(\C)[C@H](C)[C@@H](C)/C=C/C=C3\CO[C@@H]4[C@H](OC(=O)COC(=O)c5cccc(Cl)c5)C(C)=C[C@@H](C(=O)O1)[C@]34O)O2` [Verbindung 2.44, 5-O-(3-Chlorbenzoyloxy)-acetyl-13β-methyl-milbemycin A₄], for which the “Nematodenbefall” value in series [2] is recorded as “keinen Nematodenbefall”.

In the case of `CC[C@H]1O[C@]2(CC[C@@H]1C)C[C@@H]1C[C@@H](C/C=C(\C)[C@H](CC)[C@@H](C)/C=C/C=C3\CO[C@@H]4[C@H](OC(=O)CCl)C(C)=C[C@@H](C(=O)O1)[C@]34O)O2` [Verbindung 2.45], in series [1], the mortality at 100 ppm came to 100%. Moreover, the “Nematodenbefall” value in [2] is listed as “keinen Nematodenbefall”.

Consider `CC[C@H]1O[C@]2(CC[C@@H]1C)C[C@@H]1C[C@@H](C/C=C(\C)[C@H](C)[C@@H](C)/C=C/C=C3\CO[C@@H]4[C@H](OC(=O)COCOC)C(C)=C[C@@H](C(=O)O1)[C@]34O)O2` [Verbindung 2.48], for which the mortality at 100 ppm in the series with Dermanyssus gallinae (setting [5]) came to 100%.

`CC[C@H]1O[C@]2(CC[C@@H]1C)C[C@@H]1C[C@@H](C/C=C(\C)[C@H](C)[C@@H](C)/C=C/C=C3\CO[C@@H]4[C@H](OC(=O)COc5ccccc5)C(C)=C[C@@H](C(=O)O1)[C@]34O)O2` [Verbindung 2.53]: in [2], the “Nematodenbefall” value is given as “keinen Nematodenbefall”.

Take `CC[C@H]1O[C@]2(CC[C@@H]1C)C[C@@H]1C[C@@H](C/C=C(\C)[C@H](C)[C@@H](C)/C=C/C=C3\CO[C@@H]4[C@H](OC(=O)COS(=O)(=O)c5ccc(C)cc5)C(C)=C[C@@H](C(=O)O1)[C@]34O)O2` [Verbindung 2.55]: the mortality at 100 ppm in the series on Dermanyssus gallinae was found to be 100%.
